Results: ChEMBL document CHEMBL5053557, “Discovery of Novel Dual-Target Inhibitor of Bromodomain-Containing Protein 4/Casein Kinase 2 Inducing Apoptosis and Autophagy-Associated Cell Death for Triple-Negative Breast Cancer Therapy” (J Med Chem, 2021)
Calls of active or inactive are those of the source. The calls are words filed in the database; no cut-off is given here.

Legend:
MDA-MB-468 [1] = assay: Induction of autophagy in human MDA-MB-468 cells harboring GFP-mRFP-LC3 assessed as up regulation of LC3II level at 2.5 to 10 uM after 24 hrs by Western blot analysis; assay type: functional, cell-based; conditions: dose 2.5-10 µM
[2] = target: Bromodomain-containing protein 3 (Homo sapiens, UniProt Q15059); assay: Inhibition of BRD3 BD1 (unknown origin) incubated for 2 hrs by TR-FRET assay
MDA-MB-231 [3] = assay: Antiproliferative activity against JQ-1 resistant human MDA-MB-231 cells incubated for 24 hrs by MTT assay; assay type: functional, cell-based
MDA-MB-231 [4] = assay: Antitumor activity against human MDA-MB-231 cells xenografted in nude BALB/c mouse assessed as tumor growth inhibition at 50 mg/kg, po administered once daily for 19 days and measured every 3 days; assay type: functional; conditions: MDA-MB-231, 456 h, time 19 day, read-out: TGI
Mus musculus [5] = assay: Toxicity in nude BALB/c mouse xenografted with human MDA-MB-468 cells assessed as morphological changes in kidney at 25 to 50 mg/kg, po administered once daily for 19 days and measured every 3 days by H and E staining based assay; assay type: organism-based; conditions: in vivo, 456 h, dose 25-50 mg/kg, time 19 day
MDA-MB-231 [6] = assay: Inhibition of colony formation in human MDA-MB-231 cells at 5 uM after 7 days in presence of 3-MA by crystal violet staining based assay; assay type: functional, cell-based; conditions: time 7.0 day
Mus musculus [7] = assay: Down regulation of c-Myc expression in BALB/c SCID mouse xenogrfted with human MDA-MB-231 cells at 25 to 50 mg/kg, po administered once daily for 19 days by Western blot analysis; assay type: functional, organism-based; conditions: dose lower […], dose upper 50.0 mg/kg, time 19.0 day
Mus musculus [8] = assay: Toxicity in nude BALB/c mouse xenografted with human MDA-MB-231 cells assessed as morphological changes in lung at 25 to 50 mg/kg, po administered once daily for 19 days and measured every 3 days by H and E staining based assay; assay type: organism-based; conditions: in vivo, 456 h, dose 25-50 mg/kg, time 19 day
[9] = target: Bromodomain-containing protein 4 (Homo sapiens, UniProt O60885); assay: Inhibition of BRD4 BD1 (unknown origin) incubated for 2 hrs by TR-FRET assay
[10] = target: Bromodomain testis-specific protein (Homo sapiens, UniProt Q58F21); assay: Inhibition of BRDT BD2 (unknown origin) incubated for 2 hrs by TR-FRET assay
Mus musculus [11] = assay: Down regulation of c-Myc expression in BALB/c SCID mouse xenogrfted with human MDA-MB-231 cells at 25 to 50 mg/kg, po administered once daily for 19 days by immunohistochemistry analysis; assay type: functional, organism-based; conditions: dose lower […], dose upper 50.0 mg/kg, time 19.0 day
MDA-MB-468 [12] = assay: Induction of autophagy in human MDA-MB-468 cells harboring GFP-mRFP-LC3 assessed as up regulation of beclin 1 level at 2.5 to 10 uM after 24 hrs by Western blot analysis; assay type: functional, cell-based; conditions: dose 2.5-10 µM
[13] = AUC(0 to infinity) in Sprague-Dawley rat at 1 mg/kg, iv by LC-MS analysis; assay type: ADME, organism-based; design: time infinity, dose 1 mg/kg, route iv; conditions: in vivo
MDA-MB-231 [14] = assay: Antitumor activity against human MDA-MB-231 cells xenografted in nude BALB/c mouse assessed as tumor growth inhibition at 25 to 50 mg/kg, po administered once daily for 19 days and measured every 3 days by Ki-67 staining based immunohistochemical analysis; assay type: functional, organism-based; conditions: dose lower […], dose upper 50.0 mg/kg, time 19.0 day
MDA-MB-231 [15] = assay: Induction of apoptosis in human MDA-MB-231 cells at 5 uM preincubated with 3-MA for 1 hr followed by compound addition and measured after 24 hrs by Annexin V-FITC/propidium iodide staining based flow cytometric analysis; assay type: functional, cell-based
[16] = Half life in Sprague-Dawley rat at 1 mg/kg, iv by LC-MS analysis; assay type: ADME, organism-based; conditions: in vivo
Mus musculus [17] = assay: Toxicity in nude BALB/c mouse xenografted with human MDA-MB-231 cells assessed as mortality at 25 to 50 mg/kg, po administered once daily for 19 days and measured every 3 days; assay type: organism-based; conditions: in vivo, 456 h, dose 25-50 mg/kg, time 19 day
Mus musculus [18] = assay: Toxicity in nude BALB/c mouse xenografted with human MDA-MB-468 cells assessed as morphological changes in liver at 25 to 50 mg/kg, po administered once daily for 19 days and measured every 3 days by H and E staining based assay; assay type: organism-based; conditions: in vivo, 456 h, dose 25-50 mg/kg, time 19 day
MDA-MB-231 [19] = assay: Induction of autophagy in human MDA-MB-231 cells harboring GFP-mRFP-LC3 assessed as down regulation of p62 level at 5 uM after 24 hrs by Western blot analysis; assay type: functional, cell-based
MDA-MB-231 [20] = assay: Induction of apoptosis in human MDA-MB-231 cells after 24 hrs by Hoechst 33258 staining fluorescence microscopic analysis; assay type: functional, cell-based; conditions: dose 2.5-10 µM
MDA-MB-231 [21] = assay: Induction of autophagy in human MDA-MB-231 cells harboring GFP-mRFP-LC3 assessed as autophagic flux at 5 uM after 24 hrs by fluorescence microscopic analysis; assay type: functional, cell-based
Mus musculus [22] = assay: Toxicity in nude BALB/c mouse xenografted with human MDA-MB-231 cells assessed as morphological changes in liver at 25 to 50 mg/kg, po administered once daily for 19 days and measured every 3 days by H and E staining based assay; assay type: organism-based; conditions: in vivo, 456 h, dose 25-50 mg/kg, time 19 day
MDA-MB-231 [23] = assay: Inhibition of colony formation in human MDA-MB-231 cells after 7 days by crystal violet staining based assay; assay type: functional, cell-based; conditions: dose 2.5-10 µM, time 7.0 day
Mus musculus [24] = assay: Toxicity in nude BALB/c mouse xenografted with human MDA-MB-468 cells assessed as morphological changes in lung at 25 to 50 mg/kg, po administered once daily for 19 days and measured every 3 days by H and E staining based assay; assay type: organism-based; conditions: in vivo, 456 h, dose 25-50 mg/kg, time 19 day
MDA-MB-468 [25] = assay: Inhibition of colony formation in human MDA-MB-468 cells after 7 days by crystal violet staining based assay; assay type: functional, cell-based; conditions: dose 2.5-10 µM, time 7.0 day
[26] = Cmax in Sprague-Dawley rat at 10 mg/kg, po by LC-MS analysis; assay type: ADME, organism-based; design: dose 10 mg/kg, route po; conditions: in vivo
Mus musculus [27] = assay: Down regulation of phosphorylation of AKT at S129 residue expression in BALB/c SCID mouse xenogrfted with human MDA-MB-231 cells at 25 to 50 mg/kg, po administered once daily for 19 days by immunohistochemistry analysis; assay type: functional, organism-based; conditions: dose lower […], dose upper 50.0 mg/kg, time 19.0 day
Mus musculus [28] = assay: Toxicity in nude BALB/c mouse xenografted with human MDA-MB-468 cells assessed as morphological changes in heart at 25 to 50 mg/kg, po administered once daily for 19 days and measured every 3 days by H and E staining based assay; assay type: organism-based; conditions: in vivo, 456 h, dose 25-50 mg/kg, time 19 day
Mus musculus [29] = assay: Toxicity in nude BALB/c mouse xenografted with human MDA-MB-468 cells assessed as mortality at 25 to 50 mg/kg, po administered once daily for 19 days and measured every 3 days; assay type: organism-based; conditions: in vivo, 456 h, dose 25-50 mg/kg, time 19 day
MDA-MB-231 [30] = assay: Induction of autophagy in human MDA-MB-231 cells at 5 uM preincubated with 3-MA for 1 hr followed by compound addition and measured after 24 hrs by fluorescence microscopic analysis; assay type: functional, cell-based
MDA-MB-468 [31] = assay: Induction of apoptosis in human MDA-MB-468 cells after 24 hrs by Annexin V-FITC/propidium iodide staining based flow cytometry; assay type: functional, cell-based; conditions: dose 2.5-10 µM
Mus musculus [32] = assay: Down regulation of phosphorylation of AKT at S129 residue expression in BALB/c SCID mouse xenogrfted with human MDA-MB-231 cells at 25 to 50 mg/kg, po administered once daily for 19 days by Western blot analysis; assay type: functional, organism-based; conditions: dose lower […], dose upper 50.0 mg/kg, time 19.0 day
MDA-MB-231 [33] = assay: Induction of apoptosis in human MDA-MB-231 cells after 24 hrs by Annexin V-FITC/propidium iodide staining based flow cytometry; assay type: functional, cell-based; conditions: dose 2.5-10 µM
[34] = AUC(0 to t) in Sprague-Dawley rat at 1 mg/kg, iv by LC-MS analysis; assay type: ADME, organism-based; design: dose 1 mg/kg, route iv; conditions: in vivo

Sequence of Bromodomain-containing protein 3 (Q15059 whole entry): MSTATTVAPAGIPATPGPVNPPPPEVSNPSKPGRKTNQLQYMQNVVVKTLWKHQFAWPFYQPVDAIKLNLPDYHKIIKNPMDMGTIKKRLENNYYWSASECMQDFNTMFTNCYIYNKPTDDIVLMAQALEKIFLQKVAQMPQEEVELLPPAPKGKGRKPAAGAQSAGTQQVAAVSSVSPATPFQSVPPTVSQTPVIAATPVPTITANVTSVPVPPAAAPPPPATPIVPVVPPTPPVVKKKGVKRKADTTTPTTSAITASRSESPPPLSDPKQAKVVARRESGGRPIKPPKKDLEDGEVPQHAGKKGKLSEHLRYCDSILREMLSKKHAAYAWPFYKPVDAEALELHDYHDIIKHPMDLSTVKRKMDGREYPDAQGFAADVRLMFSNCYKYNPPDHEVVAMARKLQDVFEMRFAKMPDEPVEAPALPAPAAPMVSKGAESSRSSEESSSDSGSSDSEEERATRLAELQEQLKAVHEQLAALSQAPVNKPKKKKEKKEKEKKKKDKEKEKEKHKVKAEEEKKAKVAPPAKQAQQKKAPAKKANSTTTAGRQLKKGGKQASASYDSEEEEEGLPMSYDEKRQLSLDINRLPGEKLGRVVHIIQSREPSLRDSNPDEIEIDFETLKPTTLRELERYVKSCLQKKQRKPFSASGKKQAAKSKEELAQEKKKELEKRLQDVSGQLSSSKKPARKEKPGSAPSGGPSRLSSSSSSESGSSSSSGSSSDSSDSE

## COc1cc(OC)c2c(=O)[nH]c(-c3ccc(OCC(=O)Nc4ccc(N5CCN(C)CC5)c(Cl)c4)cc3)nc2c1
MDA-MB-468 [1]
  Activity: Active
[2]
  IC50: 9.2 µM
MDA-MB-231 [3]
  Activity: Active
MDA-MB-231 [4]
  inhibition in vivo at 50 mg/kg: 63.8%
Mus musculus [5]
  Activity: Non-Toxic
MDA-MB-231 [6]
  inhibition: inactive
Mus musculus [7]
  Activity: Active
Mus musculus [8]
  Activity: Non-Toxic
[9]
  IC50: 193 nM
[10]
  IC50: > 10 µM
Mus musculus [11]
  Activity: Active
MDA-MB-468 [12]
  Activity: Active
[13]
  AUC: 588 ng·h/mL
MDA-MB-231 [14]
  Activity: Active
MDA-MB-231 [15]
  Activity: inactive
[16]
  half-life: 253 min
Mus musculus [17]
  Activity: Non-Toxic
Mus musculus [18]
  Activity: Non-Toxic
MDA-MB-231 [19]
  Activity: Active
MDA-MB-231 [20]
  Activity: Dose-dependent effect
MDA-MB-231 [21]
  Activity: Active
Mus musculus [22]
  Activity: Non-Toxic
MDA-MB-231 [23]
  inhibition: Dose-dependent effect
Mus musculus [24]
  Activity: Non-Toxic
MDA-MB-468 [25]
  inhibition: Dose-dependent effect
[26]
  Cmax: 206 ng/mL
Mus musculus [27]
  Activity: Active
Mus musculus [28]
  Activity: Non-Toxic
Mus musculus [29]
  Activity: Non-Toxic
MDA-MB-231 [30]
  Activity: inactive
MDA-MB-468 [31]
  Activity: Dose-dependent effect
Mus musculus [32]
  Activity: Active
MDA-MB-231 [33]
  Activity: Dose-dependent effect
[34]
  AUC(0-t): 579 ng·h/mL
